Experimental data reported in patent US20260117071A1, “ICG LIPID DERIVATIVE, AND LIPID MICROPARTICLES EACH CONTAINING SAME” (Eisai R&D Management Co., Ltd., priority 2022, published 2026).

assay: Calculation of the molar extinction coefficient (absorption spectrum in ethanol); format: physicochemical; details: absorbance at 790 nm, 5 μM in ethanol, optical path length 1 cm
Protocol: An ICG lipid solution, prepared by the dissolution of the particular ICG lipid derivative or ICG in ethanol to provide 5 μM in each case, was introduced into a cuvette with an optical path length of 1 cm, and the absorption spectrum at 230 to 1000 nm was measured using an Infinite M200 (Tecan). The absorption spectra in FIG. 5 were provided by subtracting the absorption spectra of ethanol from the absorbance at each wavelength.
The molar concentration used in the calculation of the molar extinction coefficient was itself calculated using a purity of 100% for the ICG lipid derivative and using the nonsalt form.

Row | Compound | molar extinction coefficient ε [L/mol/cm]
1 | CC1(C)C(/C=C/C=C/C=C/C=C2/N(CCCCS(=O)(=O)[O-])c3ccc4ccccc4c3C2(C)C)=[N+](CCCCS(=O)(=O)[O-])c2ccc3ccccc3c21.[Na+] [ICG, Indocyanine green, reference compound] | 208980
2 | CCCCCCCC/C=C\CCCCCCCC(=O)OCC(COP(=O)(O)OCCNC(=O)CCN1/C(=C/C=C/C=C/C=C/C2=[N+](CCCCS(=O)(=O)[O-])c3ccc4ccccc4c3C2(C)C)C(C)(C)c2c1ccc1ccccc21)OC(=O)CCCCCCC/C=C\CCCCCCCC (centres unmarked) [ICG-DOPE, 4-(2-((1E,3E,5E,7E)-7-(3-(3-((2-(((2,3-bis(oleoyloxy)propoxy)oxidophosphoryl)oxy)ethyl)amino)-3-oxopropyl)-1,1-dimethyl-1,3-dihyro-2H-benzo[e]indol-2-ylidene)hepta-1,3,5-trien-1-yl)-1,1-dimethyl-1H-benzo[e]indol-3-ium-3-yl)butane-1-sulfonate, reference compound] | 165860
3 | CCCCCCCC/C=C\CCCCCCCC(=O)OCC(COP(=O)([O-])OCCNC(=O)CC[N+]1=C(/C=C/C=C/C=C/C=C2/N(CCC(=O)NCCOP(=O)(O)OCC(COC(=O)CCCCCCC/C=C\CCCCCCCC)OC(=O)CCCCCCC/C=C\CCCCCCCC)c3ccc4ccccc4c3C2(C)C)C(C)(C)c2c1ccc1ccccc21)OC(=O)CCCCCCC/C=C\CCCCCCCC (centres unmarked) [ICG-diDOPE, 2-(3-(2-((1E,3E,5E,7E)-7-(3-(3-((2-(((2,3-bis(oleoyloxy)propoxy)(hydroxy)phosphoryl)oxy)ethyl)amino)-3-oxopropyl)-1,1-dimethyl-1,3-dihydro-2H-benzo[e]indol-2-ylidene)hepta-1,3,5-trien-1-yl)-1,1-dimethyl-1H-benzo[e]indol-3-ium-3-yl)propanamide)ethyl(2,3-bis(oleoyloxy)propyl) phosphate] | 161100
4 | CCCCCCCCCCCCCCCCCC(=O)OCC(COP(=O)([O-])OCCNC(=O)CC[N+]1=C(/C=C/C=C/C=C/C=C2/N(CCC(=O)NCCOP(=O)(O)OCC(COC(=O)CCCCCCCCCCCCCCCCC)OC(=O)CCCCCCCCCCCCCCCCC)c3ccc4ccccc4c3C2(C)C)C(C)(C)c2c1ccc1ccccc21)OC(=O)CCCCCCCCCCCCCCCCC (centres unmarked) [ICG-diDSPE, 2-(3-(2-((1E,3E,5E,7E)-7-(3-(3-((2-(((2,3-bis(stearoyloxy)propoxy)(hydroxy)phosphoryl)oxy)ethyl)amino)-3-oxopropyl)-1,1-dimethyl-1,3-dihydro-2H-benzo[e]indol-2-ylidene)hepta-1,3,5-trien-1-yl)-1,1-dimethyl-1H-benzo[e]indol-3-ium-3-yl)propanamide)ethyl (2,3-bis(stearoyloxy)propyl) phosphate] | 199840
5 | CCCCCCCCCCCCCCCCCCNC(=O)CCN1/C(=C/C=C/C=C/C=C/C2=[N+](CCC(=O)NCCCCCCCCCCCCCCCCCC)c3ccc4ccccc4c3C2(C)C)C(C)(C)c2c1ccc1ccccc21 [ICG-diSA, 2-((1E,3E,5E,7E)-7-(1,1-dimethyl-3-(3-(octadecylamino)-3-oxopropyl)-1,3-dihydro-2H-benzo[e]indol-2-ylidene)hepta-1,3,5-trien-1-yl)-1,1-dimethyl-3-(3-(octadecylamino)-3-oxopropyl)-1H-benzo[e]indol-3-ium] | 177760
